Assay results as given in US8367695B2, “Condensed tetrahydroquinoline derivative and use thereof for medical purposes” (Mitsubishi Tanabe Pharma Corporation, priority 2007, dated 2013).
Read-outs that look alike come from different tables or passages of the source.

Target: T1, human recombinant glucocorticoids receptor (GR) (Homo sapiens, UniProt P04150)
T1 sequence (P04150 1-777): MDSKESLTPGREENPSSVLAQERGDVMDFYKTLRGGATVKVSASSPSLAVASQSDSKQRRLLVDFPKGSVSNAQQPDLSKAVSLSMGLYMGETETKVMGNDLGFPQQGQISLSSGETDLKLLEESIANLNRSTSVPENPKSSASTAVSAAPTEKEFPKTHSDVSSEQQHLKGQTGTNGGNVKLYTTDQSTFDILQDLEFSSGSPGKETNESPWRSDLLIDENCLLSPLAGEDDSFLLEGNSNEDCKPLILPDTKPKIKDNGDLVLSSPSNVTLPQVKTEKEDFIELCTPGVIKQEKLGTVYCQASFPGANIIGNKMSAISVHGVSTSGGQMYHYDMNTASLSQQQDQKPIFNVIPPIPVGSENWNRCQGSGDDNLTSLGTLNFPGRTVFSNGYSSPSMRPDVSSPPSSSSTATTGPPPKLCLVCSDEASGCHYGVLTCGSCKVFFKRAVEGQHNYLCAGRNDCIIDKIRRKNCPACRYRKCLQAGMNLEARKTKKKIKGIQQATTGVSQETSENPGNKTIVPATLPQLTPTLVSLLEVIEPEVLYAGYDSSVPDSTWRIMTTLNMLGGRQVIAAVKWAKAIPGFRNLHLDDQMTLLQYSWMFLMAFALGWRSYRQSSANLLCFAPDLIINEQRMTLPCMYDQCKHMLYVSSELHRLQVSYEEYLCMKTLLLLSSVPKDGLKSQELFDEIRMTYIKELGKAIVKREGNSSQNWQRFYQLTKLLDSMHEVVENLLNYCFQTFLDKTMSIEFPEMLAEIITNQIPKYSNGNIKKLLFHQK
Test: Radioactive ligand binding test, GR cytosol, [3H]-Dex
Protocol: Radioactive Ligand Binding Test Using Cytosols of Human Glucocorticoids Receptor, Progesterone Receptor and Mineralocorticoid Receptor
Opthalmol. Vis. […] In brief, cytosol preparations of human recombinant glucocorticoids receptor (GR) and human recombinant progesterone receptor-B (PRB) were purchased from Invitrogen (Carlsbad, Calif.), and a cytosol preparation of human recombinant mineralocorticoid receptor (MR) was prepared by our company (Yokohama, JP). MR cDNA was cloned into a baculovirus expression vector and expressed in insect cell Sf9. […] [^3H]-Dexamethasone (Dex, specific activity 91.0 Ci/mmol) was purchased from GE Healthcare (Buckinghamshire, UK), and [^3H]-progesterone (Prog, specific activity 103 Ci/mmol) and [3H]-aldosterone (Ald, specific activity 87.9 Ci/mmol) were each purchased from PerkinElmer (Boston, Mass.). Polypropylene round-bottomed 96 well plate was obtained from ABgene (Epsom, UK). Dimethyl Sulfoxide (DMSO) and hydrochloric acid were obtained from Kanto Chemical (TOKYO, JP). Trizma Base (Tris), Bovine Serum Albumin (BSA) and Sodium tungstate dihydrate were obtained from Sigma Chemicals (St. Louis, Mo.). Dithiothreitol (DTT) and Dextran 70 were obtained from GE Healthcare (Buckinghamshire, UK). Glycerol was obtained from Junsei Chemical (TOKYO, JP). Norit® “SX-II” was obtained from Wako Pure Chemical Industries, Ltd. (Osaka, JP). MeltiLex™, A, Printed Filtermat A and Sample Bag were obtained from PerkinElmer (Boston, Mass.).
As a buffer for GR binding assay, 25 mM Tris-HCl (4° C., pH 7.4)/1 mM EDTA·2Na/1 mM DTT/0.1% BSA was prepared and used. As buffers for PRB and MR binding assay, 10 mM Tris-HCl (4° C., pH 7.4)/1 mM DTT/0.1% BSA/10% glycerol and 20 mM Tris-HCl (4° C., pH 7.4)/1 mM EDTA·2Na/10% glycerol/20 mM sodium tungstate were respectively prepared and used.
Compound storage solutions (5-20 mM) were prepared using DMSO. The storage solutions were diluted with DMSO to 0.1 mM (for GR) and 0.3 mM (for PRB and MR), and further diluted 20-fold with distilled water to give solutions. Then, the preparations were diluted to each concentration with 5% DMSO solution. 1% DMSO was present at the time of the binding assay.
GR, PRB and MR binding reactions were performed in 96 well plate (ABgene). In the case of GR binding assay, [^3H]-Dex (about 5 nM), GR cytosol (concentration of function receptor: about 4 pmol/mL), a test compound and a binding buffer were mixed in a total volume of 50 μL, and the mixture was stood at 4° C. for 30 min or longer. A specific binding was defined to be the difference in the [^3H]-Dex binding between the presence and the absence of 1 μM unlabeled Dex.
After the reaction, 50 μL of DCC was added to each well and blended. Thereafter, the mixture was stood at 4° C. for 10 min. The plate was applied to high-speed cooling centrifuge under the conditions of 4° C., 2000 rpm, 5 min to perform B/F separation. A given amount of the supernatant was recovered, which was spotted on Filtermat A of 96 well format (PerkinElmer) and rapidly dried at a high temperature.
Measurement of Inhibition Constant (Ki)
Ki of the test compound was determined by the following Cheng-Prusoff equation: Ki=IC50/(1+[L*]/Kd) • wherein L* is a concentration of radioactive ligand and Kd is a dissociation constant for radioactive ligand determined by saturation analysis.

[1] = [3H]-Dex about 5 nM, GR cytosol, 4° C., Cheng-Prusoff, Kd about 3.1 nM, read-out: GR (Ki: nM)

Structure (SMILES)	Ki [1] [nM]	Ki [nM]
Cc1noc(C)c1-c1cc2c(c3c1CCC3)NC(C)(C)C(=O)C2(C)C [Example 2, 6-(3,5-dimethylisoxazol-4-yl)-2,2,4,4-tetramethyl-2,3,4,7,8,9-hexahydro-1H-cyclopenta[h]quinolin-3-one]	15	
Cc1nnn(C)c1-c1cc2c(c3c1CCC3)NC(C)(C)C(=O)C2(C)C [Example 4, 6-(3,5-dimethyl-3H-[1,2,3]triazol-4-yl)-2,2,4,4-tetramethyl-2,3,4,7,8,9-hexahydro-1H-cyclopenta[h]quinolin-3-one]	53	
CC1(C)Nc2c(cc(-c3ccnc4cc[nH]c34)c3c2CCC3)C(C)(C)C1=O [Example 13, 2,2,4,4-tetramethyl-6-(1H-pyrrolo[3,2-b]pyridin-7-yl)-2,3,4,7,8,9-hexahydro-1H-cyclopenta[h]quinolin-3-one]	54	
CC1(C)Nc2c(cc(-c3cccc4nccn34)c3c2CCC3)C(C)(C)C1=O [Example 14, 6-(imidazo[1,2-a]pyridin-5-yl)-2,2,4,4-tetramethyl-2,3,4,7,8,9-hexahydro-1H-cyclopenta[h]quinolin-3-one]	11	
CC1(C)Nc2c(cc(-c3cccc4nncn34)c3c2CCC3)C(C)(C)C1=O [Example 17, 2,2,4,4-tetramethyl-6-([1,2,4]triazolo[4,3-a]pyridin-5-yl)-2,3,4,7,8,9-hexahydro-1H-cyclopenta[h]quinolin-3-one]	53	
CC1(C)Nc2c(cc(-c3cccc4ncccc34)c3c2CCC3)C(C)(C)C1=O [Example 20, 2,2,4,4-tetramethyl-6-(quinolin-5-yl)-2,3,4,7,8,9-hexahydro-1H-cyclopenta[h]quinolin-3-one]	70	
CC1(C)Nc2c(cc(-c3ccnc4ncccc34)c3c2CCC3)C(C)(C)C1=O [Example 21, 2,2,4,4-tetramethyl-6-([1,8]naphthyridin-4-yl)-2,3,4,7,8,9-hexahydro-1H-cyclopenta[h]quinolin-3-one]	35	
C=C1C(C)(C)Nc2c(cc(-c3c(C)ncn3C)c3c2CCC3)C1(C)C [Example 29, 6-(3,5-dimethyl-3H-imidazol-4-yl)-2,2,4,4-tetramethyl-3-methylene-2,3,4,7,8,9-hexahydro-1H-cyclopenta[h]quinoline]	58	
C=CCC1(C)C(=O)C(C)(C)Nc2c1cc(-c1ccc(O)cc1C)c1c2CCC1 (stereo not drawn) [Example 50, 4-allyl-6-(4-hydroxy-2-methylphenyl)-2,2,4-trimethyl-2,3,4,7,8,9-hexahydro-1H-cyclopenta[h]quinolin-3-one]	97	
C=CCC1(C)C(=O)C(C)(C)Nc2c1cc(-c1c(C)noc1C)c1c2CCC1 (stereo not drawn) [Example 51, 4-allyl-6-(3,5-dimethylisoxazol-4-yl)-2,2,4-trimethyl-2,3,4,7,8,9-hexahydro-1H-cyclopenta[h]quinolin-3-one]	17	
C=CCC1(C)C(=O)C(C)(C)Nc2c1cc(-c1cccc3nccn13)c1c2CCC1 (stereo not drawn) [Example 57, 4-allyl-6-(imidazo[1,2-a]pyridin-5-yl)-2,2,4-trimethyl-2,3,4,7,8,9-hexahydro-1H-cyclopenta[h]quinolin-3-one]	14	
CCC1(C)C(=O)C(C)(C)Nc2c1cc(-c1cccc3nccn13)c1c2CCC1 (stereo not drawn) [Example 58, 4-ethyl-6-(imidazo[1,2-s]pyridin-5-yl)-2,2,4-trimethyl-2,3,4,7,8,9-hexahydro-1H-cyclopenta[h]quinolin-3-one]	12	
CC#CCC1(C)C(=O)C(C)(C)Nc2c1cc(-c1cccc3nccn13)c1c2CCC1 (stereo not drawn) [Example 63, 4-(2-butynyl)-6-(imidazo[1,2-a]pyridin-5-yl)-2,2,4-trimethyl-2,3,4,7,8,9-hexahydro-1H-cyclopenta[h]quinolin-3-one]	27	
Cc1noc(C)c1-c1cc2c(c3c1OCO3)NC(C)(C)C(=O)C2(C)C [Example 69, 4-(3,5-dimethylisoxazol-4-yl)-6,6,8,8-tetramethyl-6,7,8,9-tetrahydro-[1,3]dioxolo[4,5-h]quinolin-7-one]	55	
CC1(C)Nc2c(cc(-c3cccc4nccn34)c3c2OCO3)C(C)(C)C1=O [Example 71, 4-(imidazo[1,2-a]pyridin-5-yl)-6,6,8,8-tetramethyl-6,7,8,9-tetrahydro-[1,3]dioxolo[4,5-h]quinolin-7-one]	59	
CC1(C)Nc2c(cc(-c3cccc4ncccc34)c3c2OCO3)C(C)(C)C1=O [Example 72, 6,6,8,8-tetramethyl-4-(quinolin-5-yl)-6,7,8,9-tetrahydro-[1,3]dioxolo[4,5-h]quinolin-7-one]	96	
C=CCC1(C)C(=O)C(C)(C)Nc2c1cc(-c1cccc3cc[nH]c13)c1c2OCO1 (stereo not drawn) [Example 78, 6-allyl-4-(1H-indol-7-yl)-6,8,8-trimethyl-6,7,8,9-tetrahydro-[1,3]dioxolo[4,5-h]quinolin-7-one]		80
CC1(C)Nc2c(cc(-c3cccc4nccn34)c3c2OC(F)(F)O3)C(C)(C)C1=O [Example 82, 2,2-difluoro-4-(imidazo[1,2-a]pyridin-5-yl)-6,6,8,8-tetramethyl-6,7,8,9-tetrahydro-[1,3]dioxolo[4,5-h]quinolin-7-one]	47	
Cc1noc(C)c1-c1cc2c(c3c1OCC3)NC(C)(C)C(=O)C2(C)C [Example 84, 6-(3,5-dimethylisoxazol-4-yl)-2,2,4,4-tetramethyl-1,2,3,4,8,9-hexahydro-furo[2,3-h]quinolin-3-one]	27	
CC1(C)Nc2c(cc(-c3cccc4nccn34)c3c2CCO3)C(C)(C)C1=O [Example 88, 6-(imidazo[1,2-a]pyridin-5-yl)-2,2,4,4-tetramethyl-1,2,3,4,8,9-hexahydro-furo[2,3-h]quinolin-3-one]	19	
CC1(C)Nc2c(cc(-c3ccnc4ncccc34)c3c2CCO3)C(C)(C)C1=O [Example 92, 2,2,4,4-tetramethyl-6-([1,8]naphthyridin-4-yl)-1,2,3,4,8,9-hexahydro-furo[2,3-h]quinolin-3-one]	64	
Cc1onc(CO)c1-c1cc2c(c3ccoc13)NC(C)(C)C(=O)C2(C)C [Example 94, 6-(3-hydroxymethyl-5-methylisoxazol-4-yl)-2,2,4,4-tetramethyl-1,2,3,4-tetrahydro-furo[2,3-h]quinolin-3-one]	11	
CC1(C)Nc2c(cc(-c3cccc4nccn34)c3occc23)C(C)(C)C1=O [Example 98, 6-(imidazo[1,2-a]pyridin-5-yl)-2,2,4,4-tetramethyl-1,2,3,4-tetrahydro-furo[2,3-h]quinolin-3-one]	15	
CC1(C)Nc2c(cc(-c3cncc4nccn34)c3occc23)C(C)(C)C1=O [Example 100, 6-(imidazo[1,2-a]pyrazin-5-yl)-2,2,4,4-tetramethyl-1,2,3,4-tetrahydro-furo[2,3-h]quinolin-3-one]	85	
